Experimental data from ChEMBL document CHEMBL2203015, “Synthesis and biological evaluation of 5-aryloxypyrazole derivatives bearing a rhodanine-3-aromatic acid as potential antimicrobial agents” (Bioorg Med Chem Lett, 2012).
≈ marks a conversion by molar mass, not a printed value. Calls of active or inactive are those of the source. No cut-off for these calls is given here.

Key:
Staphylococcus aureus [1] = assay: Antibacterial activity against Staphylococcus aureus KCTC 209 at 64 ug/ml incubated for 24 hrs serial dilution method; format: functional, organism-based
Escherichia coli [2] = assay: Antibacterial activity against Escherichia coli 1356 at 64 ug/ml incubated for 24 hrs serial dilution method; format: functional, organism-based
Staphylococcus aureus [3] = assay: Antibacterial activity against quinolone-resistant Staphylococcus aureus CCARM 3505 at 64 ug/ml incubated for 24 hrs serial dilution method; format: functional, organism-based
Staphylococcus aureus [4] = assay: Antibacterial activity against quinolone-resistant Staphylococcus aureus CCARM 3519 at 64 ug/ml incubated for 24 hrs serial dilution method; format: functional, organism-based
Staphylococcus aureus [5] = assay: Antibacterial activity against Staphylococcus aureus KCTC 503 at 64 ug/ml incubated for 24 hrs serial dilution method; format: functional, organism-based
Staphylococcus aureus [6] = assay: Antibacterial activity against multidrug-resistant Staphylococcus aureus CCARM 3167 at 64 ug/ml incubated for 24 hrs serial dilution method; format: functional, organism-based
Staphylococcus aureus [7] = assay: Antibacterial activity against multidrug-resistant Staphylococcus aureus CCARM 3506 at 64 ug/ml incubated for 24 hrs serial dilution method; format: functional, organism-based
Staphylococcus aureus [8] = assay: Antibacterial activity against Staphylococcus aureus RN 4220 at 64 ug/ml incubated for 24 hrs serial dilution method; format: functional, organism-based
Staphylococcus aureus [9] = assay: Potency index, ratio of MIC for norfloxacin to MIC for compound against multidrug-resistant Staphylococcus aureus CCARM 3167 incubated for 24 hrs serial dilution method; format: functional
Staphylococcus aureus [10] = assay: Antibacterial activity against Staphylococcus aureus RN 4220 incubated for 24 hrs serial dilution method; format: functional; conditions: RN 4220, 24 h
Staphylococcus aureus [11] = assay: Antibacterial activity against quinolone-resistant Staphylococcus aureus CCARM 3505 incubated for 24 hrs serial dilution method; format: functional; conditions: CCARM 3505, 24 h
Staphylococcus aureus [12] = assay: Potency index, ratio of MIC for norfloxacin to MIC for compound against multidrug-resistant Staphylococcus aureus CCARM 3506 incubated for 24 hrs serial dilution method; format: functional
Staphylococcus aureus [13] = assay: Antibacterial activity against Staphylococcus aureus KCTC 209 incubated for 24 hrs serial dilution method; format: functional; conditions: KCTC 209, 24 h
Staphylococcus aureus [14] = assay: Antibacterial activity against multidrug-resistant Staphylococcus aureus CCARM 3167 incubated for 24 hrs serial dilution method; format: functional; conditions: CCARM 3167, 24 h
Staphylococcus aureus [15] = assay: Potency index, ratio of MIC for norfloxacin to MIC for compound against quinolone-resistant Staphylococcus aureus CCARM 3519 incubated for 24 hrs serial dilution method; format: functional
Staphylococcus aureus [16] = assay: Antibacterial activity against Staphylococcus aureus KCTC 503 incubated for 24 hrs serial dilution method; format: functional; conditions: KCTC 503, 24 h
Staphylococcus aureus [17] = assay: Antibacterial activity against multidrug-resistant Staphylococcus aureus CCARM 3506 incubated for 24 hrs serial dilution method; format: functional; conditions: CCARM 3506, 24 h
Staphylococcus aureus [18] = assay: Antibacterial activity against quinolone-resistant Staphylococcus aureus CCARM 3519 incubated for 24 hrs serial dilution method; format: functional; conditions: CCARM 3519, 24 h
Staphylococcus aureus [19] = assay: Potency index, ratio of MIC for norfloxacin to MIC for compound against quinolone-resistant Staphylococcus aureus CCARM 3505 incubated for 24 hrs serial dilution method; format: functional
Escherichia coli [20] = assay: Antibacterial activity against Escherichia coli 1356 incubated for 24 hrs serial dilution method; format: functional; conditions: Escherichia coli, 1356, 24 h

| SMILES | Activity (Staphylococcus aureus [1]) | Activity (Escherichia coli [2]) | Activity (Staphylococcus aureus [3]) | Activity (Staphylococcus aureus [4]) | Activity (Staphylococcus aureus [5]) | Activity (Staphylococcus aureus [6]) | Activity (Staphylococcus aureus [7]) | Activity (Staphylococcus aureus [8]) | Ratio (Staphylococcus aureus [9]) | MIC (Staphylococcus aureus [10]) | MIC (Staphylococcus aureus [11]) | Ratio (Staphylococcus aureus [12]) | MIC (Staphylococcus aureus [13]) | MIC (Staphylococcus aureus [14]) | Ratio (Staphylococcus aureus [15]) | MIC (Staphylococcus aureus [16]) | MIC (Staphylococcus aureus [17]) | MIC (Staphylococcus aureus [18]) | Ratio (Staphylococcus aureus [19]) | MIC (Escherichia coli [20]) |
| --- | --- | --- | --- | --- | --- | --- | --- | --- | --- | --- | --- | --- | --- | --- | --- | --- | --- | --- | --- | --- |
| Cc1ccc(Oc2c(C=O)c(C)nn2-c2ccccc2)cc1 | inactive | inactive | inactive | inactive | inactive | inactive | inactive | inactive |  |  |  |  |  |  |  |  |  |  |  |  |
| Cc1nn(-c2ccccc2)c(Oc2cccc(Cl)c2)c1C=O | inactive | inactive | inactive | inactive | inactive | inactive | inactive | inactive |  |  |  |  |  |  |  |  |  |  |  |  |
| Cc1cccc(Oc2c(C=O)c(C)nn2-c2ccccc2)c1 | inactive | inactive | inactive | inactive | inactive | inactive | inactive | inactive |  |  |  |  |  |  |  |  |  |  |  |  |
| Cc1ccccc1Oc1c(C=O)c(C)nn1-c1ccccc1 | inactive | inactive | inactive | inactive | inactive | inactive | inactive | inactive |  |  |  |  |  |  |  |  |  |  |  |  |
| Cc1nn(-c2ccccc2)c(Oc2c(Cl)cccc2Cl)c1C=O | inactive | inactive | inactive | inactive | inactive | inactive | inactive | inactive |  |  |  |  |  |  |  |  |  |  |  |  |
| Cc1ccc(Oc2c(C=O)c(C)nn2-c2ccccc2)c(C)c1 | inactive | inactive | inactive | inactive | inactive | inactive | inactive | inactive |  |  |  |  |  |  |  |  |  |  |  |  |
| Cc1nn(-c2ccccc2)c(Oc2ccc(F)cc2)c1C=O | inactive | inactive | inactive | inactive | inactive | inactive | inactive | inactive |  |  |  |  |  |  |  |  |  |  |  |  |
| Cc1nn(-c2ccccc2)c(Oc2ccc(Br)cc2)c1C=O | inactive | inactive | inactive | inactive | inactive | inactive | inactive | inactive |  |  |  |  |  |  |  |  |  |  |  |  |
| COc1ccc(Oc2c(C=O)c(C)nn2-c2ccccc2)cc1 | inactive | inactive | inactive | inactive | inactive | inactive | inactive | inactive |  |  |  |  |  |  |  |  |  |  |  |  |
| COc1ccccc1Oc1c(/C=C2\SC(=S)N([C@@H](Cc3ccccc3)C(=O)O)C2=O)c(C)nn1-c1ccccc1 |  |  |  |  |  |  |  |  | 2 | 16 µg/mL (≈ 28 µM) | 8 µg/mL (≈ 14 µM) | 2 | > 64 µg/mL | 8 µg/mL (≈ 14 µM) | 4 | > 64 µg/mL | 8 µg/mL (≈ 14 µM) | 8 µg/mL (≈ 14 µM) | 4 | > 64 µg/mL |
| Cc1nn(-c2ccccc2)c(Oc2c(Cl)cccc2Cl)c1/C=C1\SC(=S)N([C@@H](Cc2ccccc2)C(=O)O)C1=O |  |  |  |  |  |  |  |  | 2 | 4 µg/mL (≈ 6.55 µM) | 8 µg/mL (≈ 13.1 µM) | 2 | > 64 µg/mL | 4 µg/mL (≈ 6.55 µM) | 4 | > 64 µg/mL | 8 µg/mL (≈ 13.1 µM) | 8 µg/mL (≈ 13.1 µM) | 4 | > 64 µg/mL |
| Cc1nn(-c2ccccc2)c(Oc2ccccc2Cl)c1/C=C1\SC(=S)N([C@@H](Cc2ccccc2)C(=O)O)C1=O |  |  |  |  |  |  |  |  | 2 | 8 µg/mL (≈ 13.9 µM) | 8 µg/mL (≈ 13.9 µM) | 2 | > 64 µg/mL | 8 µg/mL (≈ 13.9 µM) | 4 | > 64 µg/mL | 8 µg/mL (≈ 13.9 µM) | 8 µg/mL (≈ 13.9 µM) | 4 | > 64 µg/mL |
| Cc1nn(-c2ccccc2)c(Oc2ccc3ccccc3c2)c1/C=C1\SC(=S)N([C@@H](Cc2ccccc2)C(=O)O)C1=O |  |  |  |  |  |  |  |  | 2 | 2 µg/mL (≈ 3.38 µM) | 2 µg/mL (≈ 3.38 µM) | 2 | > 64 µg/mL | 2 µg/mL (≈ 3.38 µM) | 4 | > 64 µg/mL | 2 µg/mL (≈ 3.38 µM) | 2 µg/mL (≈ 3.38 µM) | 4 | > 64 µg/mL |
| Cc1nn(-c2ccccc2)c(Oc2cccc(Cl)c2)c1/C=C1\SC(=S)N([C@@H](Cc2ccccc2)C(=O)O)C1=O |  |  |  |  |  |  |  |  | 2 | 4 µg/mL (≈ 6.94 µM) | 4 µg/mL (≈ 6.94 µM) | 2 | > 64 µg/mL | 4 µg/mL (≈ 6.94 µM) | 4 | > 64 µg/mL | 4 µg/mL (≈ 6.94 µM) | 8 µg/mL (≈ 13.9 µM) | 4 | > 64 µg/mL |
| Cc1nn(-c2ccccc2)c(Oc2ccc(Br)cc2)c1/C=C1\SC(=S)N([C@@H](Cc2ccccc2)C(=O)O)C1=O |  |  |  |  |  |  |  |  | 2 | 2 µg/mL (≈ 3.22 µM) | 2 µg/mL (≈ 3.22 µM) | 2 | > 64 µg/mL | 2 µg/mL (≈ 3.22 µM) | 4 | > 64 µg/mL | 2 µg/mL (≈ 3.22 µM) | 2 µg/mL (≈ 3.22 µM) | 4 | > 64 µg/mL |
| Cc1nn(-c2ccccc2)c(Oc2ccccc2)c1/C=C1\SC(=S)N([C@@H](Cc2ccccc2)C(=O)O)C1=O |  |  |  |  |  |  |  |  | 2 | 8 µg/mL (≈ 14.8 µM) | 8 µg/mL (≈ 14.8 µM) | 2 | > 64 µg/mL | 4 µg/mL (≈ 7.38 µM) | 4 | > 64 µg/mL | 4 µg/mL (≈ 7.38 µM) | 8 µg/mL (≈ 14.8 µM) | 4 | > 64 µg/mL |
| Cc1ccc(Oc2c(/C=C3\SC(=S)N([C@@H](Cc4ccccc4)C(=O)O)C3=O)c(C)nn2-c2ccccc2)cc1 |  |  |  |  |  |  |  |  | 2 | 4 µg/mL (≈ 7.2 µM) | 4 µg/mL (≈ 7.2 µM) | 2 | > 64 µg/mL | 4 µg/mL (≈ 7.2 µM) | 4 | > 64 µg/mL | 8 µg/mL (≈ 14.4 µM) | 4 µg/mL (≈ 7.2 µM) | 4 | > 64 µg/mL |
